From ChEMBL document CHEMBL5108047 (J Med Chem, 2022)
pIC50: −log10 of the molar value.

How the values were obtained:
DNA polymerase theta [1] = molecular target: T1, DNA polymerase theta (Homo sapiens, UniProt O75417); experiment: Inhibition of human DNA polymerase theta pol domain (1819 to 2590 residues) expressed in Escherichia coli BL21 (DE3) cells preincubated for 15 mins followed by DNA and dNTP addition and measured after 120 mins by Picogreen dye fluorescence intensity analysis
[2] = AUC in CD-1 mouse at 20 mg/kg, po measured upto 24 hrs by reverse phase LCMS analysis; assay type: ADME, organism-based; parameters: time < 24 hrs, dose 20 mg/kg, route po; settings: in vivo
[3] = Plasma protein binding in mouse assessed as unbound fraction by equilibrium dailysis; assay type: ADME, cell-free
[4] = fCaverage in CD-1 mouse; assay type: ADME
[5] = mouse, microsomes
Description: Metabolic stability in mouse liver microsomes assessed as clearance

DNA polymerase theta [6] = molecular target: T1, DNA polymerase theta; experiment: Inhibition of human DNA polymerase theta using 5'-CACTGACTGTATGATG as primer and DNA 16/19 as substrate by FRET assay
DNA polymerase theta [7] = molecular target: T1, DNA polymerase theta; experiment: Inhibition of human DNA polymerase theta using DNA 16/19 as substrate at 5 nM of enzyme concentration
DNA polymerase theta [8] = molecular target: T1, DNA polymerase theta; experiment: Inhibition of human DNA polymerase theta using DNA 16/19 as substrate at 2 nM of enzyme concentration
DNA polymerase theta [9] = molecular target: T1, DNA polymerase theta; experiment: Inhibition of human DNA polymerase theta using DNA 16/19 as substrate at 1 nM of enzyme concentration
DNA polymerase theta [10] = molecular target: T1, DNA polymerase theta; experiment: Inhibition of human DNA polymerase theta using DNA 16/19 as substrate at 0.5 nM of enzyme concentration

T1 sequence (O75417 whole entry, the tested form may be a part): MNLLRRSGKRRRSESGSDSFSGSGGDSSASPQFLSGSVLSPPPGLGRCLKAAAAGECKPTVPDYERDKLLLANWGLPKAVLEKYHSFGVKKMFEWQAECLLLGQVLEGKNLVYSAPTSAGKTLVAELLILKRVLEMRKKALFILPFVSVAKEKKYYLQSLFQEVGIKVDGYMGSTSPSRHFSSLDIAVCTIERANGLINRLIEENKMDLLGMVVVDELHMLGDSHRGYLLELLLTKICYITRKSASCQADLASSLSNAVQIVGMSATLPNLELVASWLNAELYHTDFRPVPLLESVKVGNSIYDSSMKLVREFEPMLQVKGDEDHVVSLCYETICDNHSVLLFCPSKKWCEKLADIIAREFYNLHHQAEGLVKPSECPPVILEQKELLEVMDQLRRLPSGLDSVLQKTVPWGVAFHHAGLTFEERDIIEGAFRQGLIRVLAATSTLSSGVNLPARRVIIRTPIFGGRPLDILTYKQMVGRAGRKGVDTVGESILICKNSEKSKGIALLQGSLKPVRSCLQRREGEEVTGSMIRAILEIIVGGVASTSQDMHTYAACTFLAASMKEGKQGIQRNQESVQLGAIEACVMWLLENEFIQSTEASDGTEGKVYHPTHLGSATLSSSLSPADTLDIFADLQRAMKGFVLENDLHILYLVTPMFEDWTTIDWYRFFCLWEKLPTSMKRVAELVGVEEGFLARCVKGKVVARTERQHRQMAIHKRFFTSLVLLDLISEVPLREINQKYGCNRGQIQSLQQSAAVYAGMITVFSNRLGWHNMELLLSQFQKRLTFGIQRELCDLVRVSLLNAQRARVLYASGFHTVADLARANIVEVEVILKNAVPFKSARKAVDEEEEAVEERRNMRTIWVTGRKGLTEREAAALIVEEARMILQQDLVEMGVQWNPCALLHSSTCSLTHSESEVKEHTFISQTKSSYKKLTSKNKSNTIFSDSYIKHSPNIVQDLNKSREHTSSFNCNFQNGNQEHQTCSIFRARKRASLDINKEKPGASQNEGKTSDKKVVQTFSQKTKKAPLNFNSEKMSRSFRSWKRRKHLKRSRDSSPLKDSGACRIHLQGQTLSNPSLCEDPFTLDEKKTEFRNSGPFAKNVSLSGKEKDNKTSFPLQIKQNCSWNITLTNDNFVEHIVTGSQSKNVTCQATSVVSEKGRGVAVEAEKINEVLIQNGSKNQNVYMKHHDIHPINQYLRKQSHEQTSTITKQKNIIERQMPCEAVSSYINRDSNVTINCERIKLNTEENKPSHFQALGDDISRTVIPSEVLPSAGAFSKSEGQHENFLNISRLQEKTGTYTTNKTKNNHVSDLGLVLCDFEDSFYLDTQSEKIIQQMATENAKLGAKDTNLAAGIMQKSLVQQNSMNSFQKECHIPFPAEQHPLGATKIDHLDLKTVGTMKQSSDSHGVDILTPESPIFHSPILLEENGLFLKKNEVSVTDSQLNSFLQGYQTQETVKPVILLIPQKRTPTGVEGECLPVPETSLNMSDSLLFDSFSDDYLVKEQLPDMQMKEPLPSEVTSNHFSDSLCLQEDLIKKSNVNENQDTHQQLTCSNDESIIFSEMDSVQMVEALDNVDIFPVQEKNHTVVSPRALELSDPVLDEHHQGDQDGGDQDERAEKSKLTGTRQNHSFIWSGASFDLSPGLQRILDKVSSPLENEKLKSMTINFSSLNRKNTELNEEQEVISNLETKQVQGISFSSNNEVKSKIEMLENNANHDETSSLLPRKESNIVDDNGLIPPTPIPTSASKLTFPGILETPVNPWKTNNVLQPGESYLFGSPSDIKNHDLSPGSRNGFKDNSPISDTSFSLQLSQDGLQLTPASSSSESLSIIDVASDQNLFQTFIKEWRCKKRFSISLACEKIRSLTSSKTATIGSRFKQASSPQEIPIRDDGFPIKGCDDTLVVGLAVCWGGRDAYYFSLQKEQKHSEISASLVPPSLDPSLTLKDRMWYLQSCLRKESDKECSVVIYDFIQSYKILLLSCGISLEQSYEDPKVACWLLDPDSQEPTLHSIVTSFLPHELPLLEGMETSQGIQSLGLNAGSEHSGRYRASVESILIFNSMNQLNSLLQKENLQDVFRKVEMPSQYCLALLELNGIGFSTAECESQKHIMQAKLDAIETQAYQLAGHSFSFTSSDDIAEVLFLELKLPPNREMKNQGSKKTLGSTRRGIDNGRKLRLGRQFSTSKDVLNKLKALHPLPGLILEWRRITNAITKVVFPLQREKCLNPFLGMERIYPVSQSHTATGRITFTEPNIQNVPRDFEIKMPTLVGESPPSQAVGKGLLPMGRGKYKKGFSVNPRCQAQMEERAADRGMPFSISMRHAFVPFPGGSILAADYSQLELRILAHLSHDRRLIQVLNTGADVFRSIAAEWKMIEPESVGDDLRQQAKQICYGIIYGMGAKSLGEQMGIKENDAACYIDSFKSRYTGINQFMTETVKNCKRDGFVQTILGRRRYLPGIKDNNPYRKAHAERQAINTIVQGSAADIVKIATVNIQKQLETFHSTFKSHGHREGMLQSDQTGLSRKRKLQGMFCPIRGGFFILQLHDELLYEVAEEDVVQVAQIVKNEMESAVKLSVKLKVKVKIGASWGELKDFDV

SMILES	pIC50 (DNA polymerase theta [1])	CLH [5] [µL/min/mg]	also measured
CC(C(N)=O)n1cc(C#CCN(C(=O)Cc2ncc(C(F)(F)F)cc2C(F)(F)F)c2ccc(F)cc2)cn1 (configuration not stated)	9.00	–	AUC [2]: 27 µM·h; Fu [3]: 0.044; f(Cave) [4]: 0.049 µM
O=C(Cc1ccc(C(F)(F)F)cc1C(F)(F)F)N(CC#Cc1ncccn1)c1ccccc1	8.41	105	–
Cc1c2c(nn1CC(=O)N(C)c1ccccc1)CCC2	5.00	473	–
CN(C(=O)Cc1ccc(C(F)(F)F)cc1C(F)(F)F)c1ccc(F)cc1	7.77	125	–
CN(C(=O)Cn1nc2c(c1C(F)(F)F)CNCC2)c1ccccc1	< 4.00	16	–
CC1Cc2nn(CC(=O)N(C)c3ccccc3)c(C(F)(F)F)c2C1 (configuration not stated)	6.02	> 832	–
CN(C(=O)Cn1nc2c(c1C(F)(F)F)CCC2)c1ccccc1	6.15	> 555	–
O=C(NCC#CCN(C(=O)Cc1ccc(C(F)(F)F)cc1C(F)(F)F)c1ccccc1)c1cccnc1	9.70	492	–
Cn1nc(N)cc1C#CCN(C(=O)Cc1ncc(C(F)(F)F)cc1C(F)(F)F)c1ccc(F)cc1	8.77	–	AUC [2]: 35.6 µM·h; Fu [3]: 0.044; f(Cave) [4]: 0.065 µM
C#CCN(C(=O)Cc1ccc(C(F)(F)F)cc1C(F)(F)F)c1ccccc1	7.85	597	–
O=C(Cc1ccc(C(F)(F)F)cc1C(F)(F)F)N(CC#Cc1ccccn1)c1ccccc1	8.54	64	–
CC(=O)NCC#CCN(C(=O)Cc1ccc(C(F)(F)F)cc1C(F)(F)F)c1ccccc1	9.09	> 832	–
[2H]C([2H])([2H])N(C(=O)Cc1ccc(C(F)(F)F)cc1C(F)(F)F)c1ccc(F)cc1	7.72	52	–
O=C(Cc1ccc(C(F)(F)F)cc1C(F)(F)F)N(CC#Cc1cccnc1)c1ccccc1	8.60	110	–
O=C(Cc1ncc(C(F)(F)F)cc1C(F)(F)F)N(CC#Cc1cnn(C2CNC2)c1)c1ccc(F)cc1	9.12	–	AUC [2]: 14.1 µM·h; Fu [3]: 0.051; f(Cave) [4]: 0.029 µM
CN(C(=O)Cc1ccc(Cl)cc1C(F)(F)F)c1ccccc1	6.92	–	–
COc1ncc(C#CCN(C(=O)Cc2ncc(C(F)(F)F)cc2C(F)(F)F)c2ccc(F)cc2)cn1	8.68	–	AUC [2]: 7 µM·h; Fu [3]: 0.013; f(Cave) [4]: 0.003 µM
Cc1nnc(C(=O)NCC#CCN(C(=O)Cc2ccc(C(F)(F)F)cc2C(F)(F)F)c2ccccc2)o1	10.17	614	–
CN(C(=O)Cn1c(C(F)(F)F)cc(C(F)(F)F)cc1=O)c1ccccc1	7.24	–	–
CN(C(=O)Cc1ccc(C2CC2)cc1C(F)(F)F)c1ccccc1	7.40	–	–
CN(C(=O)Cn1nc(C(F)(F)F)c2c1CCCC2)c1ccccc1	4.96	–	–
CN(C(=O)Cc1ccc(C(F)(F)F)cc1C(F)(F)F)c1cccnc1	5.49	216	–
CN(C(=O)Cc1ccc(C(F)(F)F)cc1C(F)(F)F)c1ccncc1	5.66	56	–

SMILES	pIC50 (DNA polymerase theta [1])	CLH [5] [µL/min/mg]	also measured
O=C(Cc1ccc(C(F)(F)F)cc1C(F)(F)F)N(CC#Cc1cccc(=O)[nH]1)c1ccccc1	9.29	39	–
O=C(NCC#CCN(C(=O)Cc1ccc(C(F)(F)F)cc1C(F)(F)F)c1ccccc1)c1ccccn1	9.40	469	–
Nc1cnc(C#CCN(C(=O)Cc2ncc(C(F)(F)F)cc2C(F)(F)F)c2ccc(F)cc2)cn1	8.38	–	AUC [2]: 108 µM·h; Fu [3]: 0.018; f(Cave) [4]: 0.081 µM
O=C(Cc1ncc(C(F)(F)F)cc1C(F)(F)F)N(CC#Cc1ccc(C2CCNC2)cn1)c1ccc(F)cc1 (configuration not stated)	9.14	–	AUC [2]: 38 µM·h; Fu [3]: 0.019; f(Cave) [4]: 0.03 µM
CN(C(=O)Cn1nc2c(c1C(F)(F)F)C(C)(C)CC2)c1ccccc1	6.28	> 555	–
CS(=O)(=O)Cn1cc(C#CCN(C(=O)Cc2ncc(C(F)(F)F)cc2C(F)(F)F)c2ccc(F)cc2)cn1	9.04	–	AUC [2]: 76.3 µM·h; Fu [3]: 0.019; f(Cave) [4]: 0.06 µM
CN(C(=O)Cn1nc2c(c1C(F)(F)F)CC(C)(C)C2)c1ccccc1	6.25	> 555	–
CN(C(=O)Cc1ncc(C(F)(F)F)cc1C(F)(F)F)c1ccccc1	7.19	–	–
Cn1cncc1C#CCN(C(=O)Cc1ccc(C(F)(F)F)cc1C(F)(F)F)c1ccccc1	8.92	57	–
CN(C(=O)Cn1nc2c(c1C(F)(F)F)CS(=O)(=O)C2)c1ccccc1	4.37	23	–
COc1ccc(C#CCN(C(=O)Cc2ncc(C(F)(F)F)cc2C(F)(F)F)c2ccc(F)cc2)nn1	8.31	–	AUC [2]: 27.7 µM·h; f(Cave) [4]: 0.006 µM
CC1CCc2nn(CC(=O)N(C)c3ccccc3)c(C(F)(F)F)c21 (configuration not stated)	6.62	> 555	–
CN(C(=O)Cn1nc2c(c1C(F)(F)F)C(=O)NCC2)c1ccccc1	< 4.00	18	–
CN(C(=O)Cn1nc2c(c1C(F)(F)F)CCC2(C)C)c1ccccc1	5.64	> 832	–
CN(C(=O)Cn1nc2c(c1C(F)(F)F)CCCC2)c1ccccc1	–	> 555	–
CN(C(=S)Cn1nc2c(c1C(F)(F)F)CCC2)c1ccccc1	7.77	> 555	pIC50 (DNA polymerase theta [6]): 8.00; pIC50 (DNA polymerase theta [7]): 7.95; pIC50 (DNA polymerase theta [8]): 8.06; pIC50 (DNA polymerase theta [9]): 8.13; pIC50 (DNA polymerase theta [10]): 8.07
Nc1ncc(C#CCN(C(=O)Cc2ncc(C(F)(F)F)cc2C(F)(F)F)c2ccc(F)cc2)cn1	8.80	–	AUC [2]: 24.7 µM·h; Fu [3]: 0.015; f(Cave) [4]: 0.081 µM
CN(C(=O)Cc1ccc(C(F)(F)F)cc1C(F)(F)F)c1ccccn1	5.57	> 832	–
N#CCN(C(=O)Cc1ccc(C(F)(F)F)cc1C(F)(F)F)c1ccccc1	7.38	115	–
Cn1cnc(C#CCN(C(=O)Cc2ncc(C(F)(F)F)cc2C(F)(F)F)c2ccc(F)cc2)c1	8.05	–	AUC [2]: 5.31 µM·h; Fu [3]: 0.018; f(Cave) [4]: 0.003 µM
CN(C(=O)Cn1nc2c(c1C(F)(F)F)C(O)CC2)c1ccccc1 (configuration not stated)	< 4.00	46	–
CN(C(=O)Cc1ccccc1C(F)(F)F)c1ccccc1	5.04	–	–
